Cc1occc(=O)c1O
solubility (mole fraction)
Settings | 288.15 K | 293.15 K | 298.15 K | 303.15 K | 308.15 K | 313.15 K | 318.15 K | 323.15 K
in 1,2-dichloroethane | 0.0109 | 0.0143 | 0.0174 | 0.0214 | 0.0262 | 0.0333 | 0.0378 | 0.048
in acetone | 0.0101 | 0.0116 | 0.0134 | 0.0157 | 0.0195 | 0.023 | 0.0265 | 0.0311
in acetonitrile | 0.00735 | 0.00861 | 0.0107 | 0.0136 | 0.016 | 0.0209 | 0.0258 | 0.0325
in ethanol | 0.00894 | 0.0106 | 0.0125 | 0.0156 | 0.0211 | 0.0273 | 0.0331 | 0.0427
in ethyl acetate | 0.0115 | 0.013 | 0.0153 | 0.02 | 0.0225 | 0.0276 | 0.0337 | 0.0413
in isobutanol | 0.00638 | 0.00832 | 0.0108 | 0.0134 | 0.0185 | 0.0238 | 0.0293 | 0.0349
in isopropanol | 0.00683 | 0.00812 | 0.0103 | 0.0129 | 0.0161 | 0.021 | 0.0265 | 0.0328
in methanol | 0.0135 | 0.0159 | 0.0185 | 0.0223 | 0.0267 | 0.0325 | 0.0373 | 0.0465
in n-butanol | 0.00705 | 0.00917 | 0.0115 | 0.0143 | 0.0182 | 0.0228 | 0.03 | 0.0365
in n-butyl acetate | 0.00889 | 0.0101 | 0.0128 | 0.0148 | 0.0193 | 0.0229 | 0.0281 | 0.0317
in n-propanol | 0.00705 | 0.00931 | 0.0118 | 0.0144 | 0.0182 | 0.0233 | 0.028 | 0.0341
in n-propyl acetate | 0.00974 | 0.0105 | 0.013 | 0.0151 | 0.0181 | 0.0226 | 0.026 | 0.0316
in sec-butanol | 0.00716 | 0.00927 | 0.0111 | 0.0153 | 0.0177 | 0.0244 | 0.0304 | 0.0408

Reference: BigSolDB 2.1
